From patent publication US12162848B2, “Inhibitors of protein tyrosine phosphatase, compositions, and methods of use” (BRISTOL-MYERS SQUIBB COMPANY, priority 2022, dated 2024)

How the values were obtained:
[1] = system: phosphorylated STAT1 protein levels in B16-F10 cells; test: Phospho-STAT1 (Tyr701) HTRF assay in IFN-gamma treated B16-F10 cells; assay type: cell-based; settings: mouse IFN-gamma 100 ng/mL, 1 hour, read-out: pSTAT1 HTRF B16 EC50
Summary of the method: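 Mouse B16-F10 cells, 10,000/well, pretreated 1 h with compound (0.15% DMSO), then stimulated with mouse IFN-gamma at 100 ng/mL final for 1 h at 37 C. Phospho-STAT1 (Tyr701) measured by HTRF.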

[2] = system: B16-F10 cells; test: Cell proliferation assay (CellTiter-Glo) in IFN-gamma treated B16-F10 cells; assay type: cell-based; settings: 120 h, mouse IFN-gamma 10 ng/mL, read-out: PTPN2 Prolif 5d B16F10 EC50
[3] = biological target: T1, PTPN2 enzyme (Homo sapiens, UniProt P17706); test: PhosphoSens PTPN2 biochemical assay; settings: substrate AQT0264 20 μM, room temperature; read-out: PTPN2 BCHEM IC50
T1 sequence (P17706 1-415): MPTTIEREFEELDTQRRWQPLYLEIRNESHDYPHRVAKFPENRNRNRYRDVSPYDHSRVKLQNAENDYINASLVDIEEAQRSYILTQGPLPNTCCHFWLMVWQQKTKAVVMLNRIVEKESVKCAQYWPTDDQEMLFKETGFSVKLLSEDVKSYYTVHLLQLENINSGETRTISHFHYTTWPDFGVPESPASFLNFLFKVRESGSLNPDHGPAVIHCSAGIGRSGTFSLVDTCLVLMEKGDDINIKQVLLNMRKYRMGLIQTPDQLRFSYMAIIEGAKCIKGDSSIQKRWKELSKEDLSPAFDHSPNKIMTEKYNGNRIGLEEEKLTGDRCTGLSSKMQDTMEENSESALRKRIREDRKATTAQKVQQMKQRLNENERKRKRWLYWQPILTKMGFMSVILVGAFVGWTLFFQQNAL
Summary of the method: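 PhosphoSens fluorescence format with 20 μM final AQT0264 substrate and […] in 50 mM HEPES pH 7.5, 500 μM EGTA, […], 0.01% Brij-35, 1% glycerol, 1 mM DTT, 0.2 mg/mL BSA. Compounds in 3-fold dilution series; progress curves read (ex 360/em 480 nm) every 71 s for 1 h at room temperature.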

| Structure (SMILES) | EC50 [1] | EC50 [2] | IC50 [3] |
| --- | --- | --- | --- |
| O=C1CN(c2c(O)cc(-c3cccc(Oc4ccccc4)c3)cc2F)S(=O)(=O)N1 [EXAMPLE 14, 5-[2-fluoro-6-hydroxy-4-(3-phenoxyphenyl)phenyl]-1,1-dioxo-1,2,5-thiadiazolidin-3-one] | ≥ 15000 nM | ≥ 15000 nM | 2210 nM |
| O=C1CN(c2c(O)cc(-c3cc(-c4ccccc4)cs3)cc2F)S(=O)(=O)N1 [EXAMPLE 18, 5-[2-fluoro-6-hydroxy-4-(4-phenyl-2-thienyl)phenyl]-1,1-dioxo-1,2,5-thiadiazolidin-3-one] | ≥ 15000 nM | ≥ 15000 nM | 1190 nM |
| O=C1CN(c2c(O)cc(-c3ccc(O)nc3)cc2F)S(=O)(=O)N1 [EXAMPLE 26, 5-[2-fluoro-6-hydroxy-4-(6-hydroxy-3-pyridyl)phenyl]-1,1-dioxo-1,2,5-thiadiazolidin-3-one] | 2180 nM | 3110 nM | 10 nM |
| CC(=O)N[C@H]1CC[C@H](NCc2cc(O)c(N3CC(=O)NS3(=O)=O)c(F)c2)CC1 [EXAMPLE 60, N-((1r,4r)-4-((4-(1,1-dioxido-4-oxo-1,2,5-thiadiazolidin-2-yl)-3-fluoro-5-hydroxybenzyl)amino)cyclohexyl)acetamide] | ≥ 15000 nM | ≥ 15000 nM | 410 nM |
| O=C1CN(c2c(O)cc(-c3ccc(N4CCOCC4)cc3)cc2F)S(=O)(=O)N1 [EXAMPLE 13, 5-[2-fluoro-6-hydroxy-4-(4-morpholinophenyl)phenyl]-1,1-dioxo-1,2,5-thiadiazolidin-3-one] | ≥ 15000 nM | ≥ 15000 nM | 466 nM |
| O=C1CN(c2c(O)cc(-c3ccnc(-c4ccccc4)c3)cc2F)S(=O)(=O)N1 [EXAMPLE 20, 5-[2-fluoro-6-hydroxy-4-(2-phenyl-4-pyridyl)phenyl]-1,1-dioxo-1,2,5-thiadiazolidin-3-one] | ≥ 15000 nM | ≥ 15000 nM | 205 nM |
| CC(C)(O)c1ccc(-c2cc(O)c(N3CC(=O)NS3(=O)=O)c(F)c2)cc1 [EXAMPLE 22, 5-[2-fluoro-6-hydroxy-4-[4-(1-hydroxy-1-methyl-ethyl)phenyl]phenyl]-1,1-dioxo-1,2,5-thiadiazolidin-3-one] | ≥ 15000 nM | ≥ 15000 nM | 179 nM |
| COCCN1CCN(Cc2cc(O)c(N3CC(=O)NS3(=O)=O)c(F)c2)CC1 [EXAMPLE 44, 5-(2-fluoro-6-hydroxy-4-((4-(2-methoxyethyl)piperazin-1-yl)methyl)phenyl)-1,2,5-thiadiazolidin-3-one 1,1-dioxide] | ≥ 15000 nM | ≥ 15000 nM | 131 nM |
